From US12459922B2 (Gilead Sciences, Inc., priority 2022, dated 2025)

What was measured:
[1] = test system: endogenous cellular STAT1 (phosphorylated at Tyr701) in NCI-H1373 cells; assay: Phospho-STAT1 (Tyr701) LANCE Ultra TR-FRET Detection Assay; type: cell-based; conditions: Homo sapiens, NCI-H1373, 48 h, phospho-STAT1 (Tyr701) induction, read-out: NH1373 pSTAT1 EC50
[2] = target: T1, PARP7 (Homo sapiens, UniProt Q7Z3E1); assay: Probe Displacement Assay for PARP7 (MSD electrochemiluminescent, biotinylated probe RBNO11147); conditions: displacement of biotinylated probe RBNO11147 from PARP7 NAD+-binding site; read-out: MSD ProbeDisp PARP7 IC50
T1 sequence (Q7Z3E1 1-657): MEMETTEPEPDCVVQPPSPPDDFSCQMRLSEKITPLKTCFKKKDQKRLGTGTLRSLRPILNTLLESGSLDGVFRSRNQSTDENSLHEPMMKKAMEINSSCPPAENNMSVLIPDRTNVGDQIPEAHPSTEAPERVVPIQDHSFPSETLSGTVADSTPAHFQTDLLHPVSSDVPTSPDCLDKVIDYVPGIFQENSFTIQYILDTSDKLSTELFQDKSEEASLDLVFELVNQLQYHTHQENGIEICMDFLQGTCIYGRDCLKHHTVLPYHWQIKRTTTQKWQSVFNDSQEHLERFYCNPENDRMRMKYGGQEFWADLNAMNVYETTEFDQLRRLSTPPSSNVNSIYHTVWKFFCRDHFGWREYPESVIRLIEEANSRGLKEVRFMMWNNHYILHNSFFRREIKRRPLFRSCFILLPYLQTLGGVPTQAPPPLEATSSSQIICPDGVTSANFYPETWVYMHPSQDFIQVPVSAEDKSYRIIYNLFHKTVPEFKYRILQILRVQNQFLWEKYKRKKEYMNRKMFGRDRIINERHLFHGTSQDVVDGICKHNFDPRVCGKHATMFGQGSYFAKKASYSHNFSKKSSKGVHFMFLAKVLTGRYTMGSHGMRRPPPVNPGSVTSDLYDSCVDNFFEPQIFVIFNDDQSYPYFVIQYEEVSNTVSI
Description: Displacement of a biotinylated probe (RBNO11147; Wigle et al., Cell Chemical Biology, 2020, pp. 877-887) from the PARP7 NAD+-binding site was measured in vitro using a Mesoscale Discovery electrochemiluminescent assay. […] Next, 10 ml of 10 nM PARP7 protein incubated for 1 hour at room temperature with a dose response curve of each test compound in a Greiner LDV polypropylene plate (#781201) is added to the MSD plate containing the immobilized probe. The interaction is allowed to reach equilibrium for 1.5 hours, and then 10 ml of SULFO-TAG labeled anti-GST antibody (Cat #R32AA-1) is added to each well and allowed to incubate for an additional 1.5 hours at room temperature. Finally, 10 ml of MSD read buffer T (4×, Cat. #R92C-1) is added to each well using a Bravo liquid handler to prevent air bubbles in the wells, and the plates are subsequently read in an MSD instrument. Light intensity is then measured to quantify the amount of PARP7 bound to the immobilized probe on the plate.

Compound | EC50 [1] | IC50 [2]
C[C@@H](CCCn1cnc2cc(-c3ncc(F)cn3)c(F)cc2c1=O)Nc1cn[nH]c(=O)c1C(F)(F)F [Example 60, 6-fluoro-7-(5-fluoropyrimidin-2-yl)-3-[(4S)-4-[[6-oxo-5-(trifluoromethyl)-1H-pyridazin-4-yl]amino]pentyl]quinazolin-4-one] | 772 nM | 0.897 nM
C[C@@H](CCCn1ccc2cc(-c3cnc(C#N)cn3)c(F)cc2c1=O)Nc1cn[nH]c(=O)c1C(F)(F)F [Example 23, (S)-5-(7-fluoro-1-oxo-2-(4-((6-oxo-5-(trifluoromethyl)-1,6-dihydropyridazin-4-yl)amino)pentyl)-1,2-dihydroisoquinolin-6-yl)pyrazine-2-carbonitrile] | 2300 nM | 0.4 nM
C[C@@H](CCCn1ccc2cc(-c3ncc(C(F)(F)F)cn3)c(F)cc2c1=O)Nc1cn[nH]c(=O)c1C(F)(F)F [Example 8, 7-fluoro-2-[(4S)-4-[[6-oxo-5-(trifluoromethyl)-1H-pyridazin-4-yl]amino]pentyl]-6-[5-(trifluoromethyl)pyrimidin-2-yl]isoquinolin-1-one] | 19.2 nM | 0.2 nM
C[C@@H](CCCn1ccc2cc(-c3ccc(C4(C(F)(F)F)CC4)cn3)cc(F)c2c1=O)Nc1cn[nH]c(=O)c1C(F)(F)F [Example 39, 8-fluoro-2-[(4S)-4-[[6-oxo-5-(trifluoromethyl)-1H-pyridazin-4-yl]amino]pentyl]-6-[5-[1-(trifluoromethyl)cyclopropyl]-2-pyridyl]isoquinolin-1-one] | 890 nM | 2.5 nM
C[C@@H](CCCn1ccc2c(F)c(-c3ncc(C(F)(F)F)cn3)ccc2c1=O)Nc1cn[nH]c(=O)c1C(F)(F)F [Example 6, 5-fluoro-2-[(4S)-4-[[6-oxo-5-(trifluoromethyl)-1H-pyridazin-4-yl]amino]pentyl]-6-[5-(trifluoromethyl)pyrimidin-2-yl]isoquinolin-1-one] | 434 nM | 0.7 nM
C[C@@H](CCCn1ccc2cc(-c3nc4ccccc4o3)c(F)cc2c1=O)Nc1cn[nH]c(=O)c1C(F)(F)F [Example 307, (S)-6-(benzo[d]oxazol-2-yl)-7-fluoro-2-(4-((6-oxo-5-(trifluoromethyl)-1,6-dihydropyridazin-4-yl)amino)pentyl)isoquinolin-1(2H)-one] | 11.2 nM | 0.352 nM
C[C@@H](CCCn1ccc2cc(-c3cn4ccccc4n3)c(F)cc2c1=O)Nc1cn[nH]c(=O)c1C(F)(F)F [Example 305, (S)-7-fluoro-6-(imidazo[1,2-a]pyridin-2-yl)-2-(4-((6-oxo-5-(trifluoromethyl)-1,6-dihydropyridazin-4-yl)amino)pentyl)isoquinolin-1(2H)-one] | 57 nM | 0.387 nM
C[C@@H](CCCn1ccc2cc(-c3ncc4c(n3)NC(=O)CO4)c(F)cc2c1=O)Nc1cn[nH]c(=O)c1C(F)(F)F [Example 185, (S)-2-(7-fluoro-1-oxo-2-(4-((6-oxo-5-(trifluoromethyl)-1,6-dihydropyridazin-4-yl)amino)pentyl)-1,2-dihydroisoquinolin-6-yl)-6H-pyrimido[5,4-b][1,4]oxazin-7(8H)-one] | 1750 nM | 0.11 nM
C[C@@H](CCCn1ccc2cc(-c3ccc(CC(F)(F)F)cn3)cc(F)c2c1=O)Nc1cn[nH]c(=O)c1C(F)(F)F [Example 41, 8-fluoro-2-[(4S)-4-[[6-oxo-5-(trifluoromethyl)-1H-pyridazin-4-yl]amino]pentyl]-6-[5-(2,2,2-trifluoroethyl)-2-pyridyl]isoquinolin-1-one] | 144 nM | 3.7 nM
C[C@@H](CC(F)(F)Cn1ccc2cc(-c3ncc(C(F)(F)F)cn3)c(F)cc2c1=O)Nc1cn[nH]c(=O)c1C(F)(F)F [Example 89, 2-[(4S)-2,2-difluoro-4-[[6-oxo-5-(trifluoromethyl)-1H-pyridazin-4-yl]amino]pentyl]-7-fluoro-6-[5-(trifluoromethyl)pyrimidin-2-yl]isoquinolin-1-one] | 40.5 nM | 
C#C[C@@H](CCCn1ccc2cc(-c3ncc(C(F)(F)F)cn3)c(F)cc2c1=O)Nc1cn[nH]c(=O)c1C(F)(F)F [Example 170, 7-fluoro-2-[(4R)-4-[[6-oxo-5-(trifluoromethyl)-1H-pyridazin-4-yl]amino]hex-5-ynyl]-6-[5-(trifluoromethyl)pyrimidin-2-yl]isoquinolin-1-one] | 195 nM | 
COc1cnc(-c2cc3ccn(CCC[C@H](C)Nc4cn[nH]c(=O)c4C(F)(F)F)c(=O)c3cc2F)nc1N1CC2(COC2)C1 [Example 205] | 75.8 nM | 
Nc1nc(-c2cc3ncn(CCC[C@@H](Nc4cn[nH]c(=O)c4C(F)(F)F)C4CC4)c(=O)c3cc2F)ncc1C(F)(F)F [Example 469, 7-[4-amino-5-(trifluoromethyl)pyrimidin-2-yl]-3-[(4R)-4-cyclopropyl-4-[[6-oxo-5-(trifluoromethyl)-1H-pyridazin-4-yl]amino]butyl]-6-fluoro-quinazolin-4-one] | 14.5 nM | 
C[C@@H]1C[C@@H](CCCn2cnc3cc(-c4ncc(C(F)(F)F)cn4)c(F)cc3c2=O)N(c2cn[nH]c(=O)c2C(F)(F)F)C1 [Example 176, 6-fluoro-3-[3-[(2R,4R)-4-methyl-1-[6-oxo-5-(trifluoromethyl)-1H-pyridazin-4-yl]pyrrolidin-2-yl]propyl]-7-[5-(trifluoromethyl)pyrimidin-2-yl]quinazolin-4-one] | 186 nM | 
C[C@@H](CCCn1cnc2cc(-c3ncc(C4CC4)cn3)c(F)cc2c1=O)Nc1cn[nH]c(=O)c1C(F)(F)F [Example 83, (S)-7-(5-cyclopropylpyrimidin-2-yl)-6-fluoro-3-(4-((6-oxo-5-(trifluoromethyl)-1,6-dihydropyridazin-4-yl)amino)pentyl)quinazolin-4(3H)-one] | 58.2 nM | 
CC[C@@H](CCCn1cnc2cc(-c3cnc(C(F)F)cn3)c(F)cc2c1=O)Nc1cn[nH]c(=O)c1C(F)(F)F [Example 346, (S)-7-(5-(difluoromethyl)pyrazin-2-yl)-6-fluoro-3-(4-((6-oxo-5-(trifluoromethyl)-1,6-dihydropyridazin-4-yl)amino)hexyl)quinazolin-4(3H)-one] | 187 nM | 
O=c1[nH]ncc(N[C@H]2CCC[C@@H](Cn3ccc4cc(-c5cc6c(cn5)C(F)(F)CC6)c(F)cc4c3=O)C2)c1C(F)(F)F [Example 496, 6-(7,7-difluoro-5,6-dihydrocyclopenta[c]pyridin-3-yl)-7-fluoro-2-[[(1R,3S)-3-[[6-oxo-5-(trifluoromethyl)-1H-pyridazin-4-yl]amino]cyclohexyl]methyl]isoquinolin-1-one] | 5.5 nM | 
Nc1nc(-c2cc3ccn(CC[C@H]4COC[C@@H]4Nc4cn[nH]c(=O)c4C(F)(F)F)c(=O)c3cc2F)ncc1C(F)(F)F (racemic) [Example 441, (rac) 6-(4-amino-5-(trifluoromethyl)pyrimidin-2-yl)-7-fluoro-2-(2-((3R,4R)-4-((6-oxo-5-(trifluoromethyl)-1,6-dihydropyridazin-4-yl)amino)tetrahydrofuran-3-yl)ethyl)isoquinolin-1(2H)-one] | 388 nM | 
Nc1nc(-c2cc3ncn(CCC[C@H](COC(F)F)Nc4cn[nH]c(=O)c4C(F)(F)F)c(=O)c3cc2F)nc(C2CC2)c1Cl [Example 414, (R)-7-(4-amino-5-chloro-6-cyclopropylpyrimidin-2-yl)-3-(5-(difluoromethoxy)-4-((6-oxo-5-(trifluoromethyl)-1,6-dihydropyridazin-4-yl)amino)pentyl)-6-fluoroquinazolin-4(3H)-one] | 10.9 nM | 
O=c1[nH]ncc(N[C@H](CCCn2cnc3nc(-c4ccc(C(F)(F)F)cn4)ccc3c2=O)COC(F)F)c1C(F)(F)F [Example 404, (R)-3-(5-(difluoromethoxy)-4-((6-oxo-5-(trifluoromethyl)-1,6-dihydropyridazin-4-yl)amino)pentyl)-7-(5-(trifluoromethyl)pyridin-2-yl)pyrido[2,3-d]pyrimidin-4(3H)-one] | 1.57 nM | 
Nc1nc(-c2cc3ccn(C[C@@H]4CCC[C@H](Nc5cn[nH]c(=O)c5C(F)(F)F)C4)c(=O)c3cc2F)nc(C2CC2)c1Cl [Example 282, 6-(4-amino-5-chloro-6-cyclopropylpyrimidin-2-yl)-7-fluoro-2-(((1R,3S)-3-((6-oxo-5-(trifluoromethyl)-1,6-dihydropyridazin-4-yl)amino)cyclohexyl)methyl)isoquinolin-1(2H)-one] | 80.1 nM | 
O=c1[nH]ncc(N[C@H]2CCC[C@@H](Cn3cnc4cc(-c5ncc(C(F)F)cn5)c(F)cc4c3=O)C2)c1C(F)(F)F [Example 244, 7-(5-(difluoromethyl)pyrimidin-2-yl)-6-fluoro-3-(((1R,3S)-3-((6-oxo-5-(trifluoromethyl)-1,6-dihydropyridazin-4-yl)amino)cyclohexyl)methyl)quinazolin-4(3H)-one] | 5.19 nM | 
O=c1[nH]ncc(N[C@H]2CCC[C@@H](Cn3cnc4cc(-c5ncc(Cl)cn5)c(F)cc4c3=O)C2)c1C(F)(F)F [Example 247, 7-(5-chloropyrimidin-2-yl)-6-fluoro-3-(((1R,3S)-3-((6-oxo-5-(trifluoromethyl)-1,6-dihydropyridazin-4-yl)amino)cyclohexyl)methyl)quinazolin-4(3H)-one] | 8.8 nM | 
